Data published in patent US20260327191A1, “GSK3a INHIBITORS AND METHODS OF USE THEREOF” (Blueprint Medicines Corporation, priority 2023, published 2026).
pIC50: −log10 of the molar value.

Key:
human GSK3α = biological target: T1, human GSK3α (Homo sapiens, UniProt P49840); test: In vitro enzymatic activity assay, GSK3α; type: biochemical; details: 1.0 mM ATP, 1.0 μM peptide substrate, 120 min, 25° C, read-out: Enzyme GSK3α (IC50)
T1 construct: Full length human GSK3α or GSK3B expressed as N-terminal GST fusion proteins; GST (N); purchased Carna Biosciences (Japan); host or cells: baculovirus host
T1 sequence (P49840 whole entry, the tested form may be a part): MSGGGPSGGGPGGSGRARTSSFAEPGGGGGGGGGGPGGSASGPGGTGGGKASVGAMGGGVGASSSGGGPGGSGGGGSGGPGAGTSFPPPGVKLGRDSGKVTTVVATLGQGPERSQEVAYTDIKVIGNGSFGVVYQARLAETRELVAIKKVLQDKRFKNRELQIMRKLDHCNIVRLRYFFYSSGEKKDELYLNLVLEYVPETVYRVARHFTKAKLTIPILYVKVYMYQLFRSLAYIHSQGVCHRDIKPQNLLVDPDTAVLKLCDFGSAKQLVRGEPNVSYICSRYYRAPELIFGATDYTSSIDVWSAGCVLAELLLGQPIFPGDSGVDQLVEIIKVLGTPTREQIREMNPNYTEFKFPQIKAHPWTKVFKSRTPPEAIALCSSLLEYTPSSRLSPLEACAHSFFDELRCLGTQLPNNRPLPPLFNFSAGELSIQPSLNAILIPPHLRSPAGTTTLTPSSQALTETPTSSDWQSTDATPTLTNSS

GSK3B [1] = biological target: T2, GSK3B (Homo sapiens, UniProt P49841); test: In vitro enzymatic activity assay, GSK3β; type: biochemical; design: Full length human GSK3α or GSK3B expressed as N-terminal GST fusion proteins; GST (N); purchased Carna Biosciences (Japan); host or cells: baculovirus host; details: 1.0 mM ATP, 1.0 μM peptide substrate, 120 min, 25° C, read-out: Enzyme GSK3β (IC50)
T2 sequence (P49841 whole entry, the tested form may be a part): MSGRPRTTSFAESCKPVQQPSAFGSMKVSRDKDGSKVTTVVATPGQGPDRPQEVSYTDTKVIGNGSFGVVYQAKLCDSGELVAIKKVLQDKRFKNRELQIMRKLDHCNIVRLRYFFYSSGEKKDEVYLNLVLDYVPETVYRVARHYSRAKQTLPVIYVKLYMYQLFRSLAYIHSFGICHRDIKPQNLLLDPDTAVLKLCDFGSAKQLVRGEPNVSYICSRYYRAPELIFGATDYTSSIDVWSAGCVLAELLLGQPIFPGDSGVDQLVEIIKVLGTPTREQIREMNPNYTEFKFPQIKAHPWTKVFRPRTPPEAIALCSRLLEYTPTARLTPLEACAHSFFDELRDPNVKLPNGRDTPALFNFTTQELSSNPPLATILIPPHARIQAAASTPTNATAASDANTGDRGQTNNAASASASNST

GSK3A = biological target: T3, GSK3A (Homo sapiens, UniProt P49840); test: NanoBRET cellular target engagement assay, Nanoluc-GSK3A in HEK293 cells; type: cell-based; details: NanoBRET GSK3α IC50, HEK293 cells, tracer K-8, 2 hours, 37° C
T3 construct: expressed in transfected cells
T3 sequence (P49840 whole entry): as the sequence (P49840 whole entry, the tested form may be a part) above

GSK3B [2] = biological target: T2, GSK3B; test: NanoBRET cellular target engagement assay, Nanoluc-GSK3B in HEK293 cells; type: cell-based; design: expressed in transfected cells; details: NanoBRET GSK3β IC50, HEK293 cells, tracer K-8, 2 hours, 37° C

Row | pIC50 (human GSK3α) | pIC50 (GSK3B [1]) | pIC50 (GSK3A) | pIC50 (GSK3B [2]) | SMILES
1 | 8.22 | 6.46 | 8.54 | 6.69 | COCc1cc(Cl)c(-n2cnc(N)c(C(=O)Nc3cncc([C@@H](C)N)c3)c2=O)c(Cl)c1 (single isomer, unassigned) [Example 66, (R)-4-amino-N-(5-(1-aminoethyl)pyridin-3-yl)-1-(2,6-dichloro-4-(methoxymethyl)phenyl)-6-oxo-1,6-dihydropyrimidine-5-carboxamide or (S)-4-amino-N-(5-(1-aminoethyl)pyridin-3-yl)-1-(2,6-dichloro-4-(methoxymethyl)phenyl)-6-oxo-1,6-dihydropyrimidine-5-carboxamide]
2 | 8.68 | 6.98 | 8.85 | 7.13 | COCc1cc(Cl)c(-n2cnc(N)c(C(=O)Nc3cncc([C@@H](C)N)c3)c2=O)c(Cl)c1 (single isomer, unassigned) [Example 67, (S)-4-amino-N-(5-(1-aminoethyl)pyridin-3-yl)-1-(2,6-dichloro-4-(methoxymethyl)phenyl)-6-oxo-1,6-dihydropyrimidine-5-carboxamide or (R)-4-amino-N-(5-(1-aminoethyl)pyridin-3-yl)-1-(2,6-dichloro-4-(methoxymethyl)phenyl)-6-oxo-1,6-dihydropyrimidine-5-carboxamide]
3 | 7.90 | 6.27 | 8.15 | 6.29 | CCOC[C@H](N)c1cncc(NC(=O)c2c(N)ncn(-c3c(Cl)cc(COC)cc3Cl)c2=O)c1 (single isomer, unassigned) [Example 69, (R)-4-amino-N-(5-(1-amino-2-ethoxyethyl)pyridin-3-yl)-1-(2,6-dichloro-4-(methoxymethyl)phenyl)-6-oxo-1,6-dihydropyrimidine-5-carboxamide or (S)-4-amino-N-(5-(1-amino-2-ethoxyethyl)pyridin-3-yl)-1-(2,6-dichloro-4-(methoxymethyl)phenyl)-6-oxo-1,6-dihydropyrimidine-5-carboxamide]
4 | 8.54 | 6.84 | 8.62 | 6.70 | COCc1cc(Cl)c(-n2cnc(N)c(C(=O)Nc3cncc([C@H](N)CC(F)F)c3)c2=O)c(Cl)c1 (single isomer, unassigned) [Example 70, (R)-4-amino-N-(5-(1-amino-3,3-difluoropropyl)pyridin-3-yl)-1-(2,6-dichloro-4-(methoxymethyl)phenyl)-6-oxo-1,6-dihydropyrimidine-5-carboxamide or (S)-4-amino-N-(5-(1-amino-3,3-difluoropropyl)pyridin-3-yl)-1-(2,6-dichloro-4-(methoxymethyl)phenyl)-6-oxo-1,6-dihydropyrimidine-5-carboxamide]
5 | 8.02 | 6.33 | 8.18 | 6.44 | COc1cc(Cl)c(-n2cnc(N)c(C(=O)Nc3cncc([C@@H](C)N)c3)c2=O)c(Cl)c1 (single isomer, unassigned) [Example 74, (R)-4-amino-N-(5-(1-aminoethyl)pyridin-3-yl)-1-(2,6-dichloro-4-methoxyphenyl)-6-oxo-1,6-dihydropyrimidine-5-carboxamide or (S)-4-amino-N-(5-(1-aminoethyl)pyridin-3-yl)-1-(2,6-dichloro-4-methoxyphenyl)-6-oxo-1,6-dihydropyrimidine-5-carboxamide]
6 | 8.62 | 6.97 | 8.44 | 6.73 | COc1cc(Cl)c(-n2cnc(N)c(C(=O)Nc3cncc([C@@H]4COCCCN4)c3)c2=O)c(Cl)c1 (single isomer, unassigned) [Example 75, (R)-N-(5-(1,4-oxazepan-3-yl)pyridin-3-yl)-4-amino-1-(2,6-dichloro-4-methoxyphenyl)-6-oxo-1,6-dihydropyrimidine-5-carboxamide or (S)-N-(5-(1,4-oxazepan-3-yl)pyridin-3-yl)-4-amino-1-(2,6-dichloro-4-methoxyphenyl)-6-oxo-1,6-dihydropyrimidine-5-carboxamide]
7 | 7.80 | 6.07 | 8.03 | 6.23 | COc1cc(Cl)c(-n2cnc(N)c(C(=O)Nc3cnc(F)c([C@@H]4CCCCN4)c3)c2=O)c(Cl)c1 (single isomer, unassigned) [Example 76, (S)-4-amino-1-(2,6-dichloro-4-methoxyphenyl)-N-(6-fluoro-5-(piperidin-2-yl)pyridin-3-yl)-6-oxo-1,6-dihydropyrimidine-5-carboxamide or (R)-4-amino-1-(2,6-dichloro-4-methoxyphenyl)-N-(6-fluoro-5-(piperidin-2-yl)pyridin-3-yl)-6-oxo-1,6-dihydropyrimidine-5-carboxamide]
8 | 7.94 | 6.02 | 8.11 | 6.15 | COc1cc(Cl)c(-n2cnc(N)c(C(=O)Nc3cncc(C4CCC(C)N4)c3)c2=O)c(Cl)c1 (single isomer, unassigned) [Example 78]
9 | 8.37 | 6.50 | 8.62 | 6.77 | COc1cc(Cl)c(-n2cnc(N)c(C(=O)Nc3cncc(C4CCC(C)N4)c3)c2=O)c(Cl)c1 (single isomer, unassigned) [Example 79]
10 | 8.60 | 6.57 | 8.54 | 6.57 | CN[C@@H](COC)c1cncc(NC(=O)c2c(N)ncn(-c3c(Cl)cc(OC)cc3Cl)c2=O)c1 (single isomer, unassigned) [Example 80, (R)-4-amino-1-(2,6-dichloro-4-methoxyphenyl)-N-(5-(2-methoxy-1-(methylamino)ethyl)pyridin-3-yl)-6-oxo-1,6-dihydropyrimidine-5-carboxamide or (S)-4-amino-1-(2,6-dichloro-4-methoxyphenyl)-N-(5-(2-methoxy-1-(methylamino)ethyl)pyridin-3-yl)-6-oxo-1,6-dihydropyrimidine-5-carboxamide]
11 | 8.23 | 6.50 | 8.64 | 6.93 | COc1cc(Cl)c(-n2cnc(N)c(C(=O)Nc3cncc([C@H]4CCC[C@H](C)N4)c3)c2=O)c(Cl)c1 (single isomer, unassigned) [Example 81]
12 | 8.35 | 6.61 | 8.40 | 6.57 | COc1cc(Cl)c(-n2cnc(N)c(C(=O)Nc3cncc(C(N)CC(F)F)c3)c2=O)c(Cl)c1 (single isomer, unassigned) [Example 82, (R)-4-amino-N-(5-(1-amino-3,3-difluoropropyl)pyridin-3-yl)-1-(2,6-dichloro-4-methoxyphenyl)-6-oxo-1,6-dihydropyrimidine-5-carboxamide or (S)-4-amino-N-(5-(1-amino-3,3-difluoropropyl)pyridin-3-yl)-1-(2,6-dichloro-4-methoxyphenyl)-6-oxo-1,6-dihydropyrimidine-5-carboxamide]
13 | 8.15 | 6.31 | 8.39 | 6.47 | COc1cc(Cl)c(-n2cnc(N)c(C(=O)Nc3cncc(C4CCCC(C)N4)c3)c2=O)c(Cl)c1 (single isomer, unassigned) [Example 83]
14 | 8.42 | 6.60 | 8.60 | 6.75 | COc1cc(Cl)c(-n2cnc(N)c(C(=O)Nc3cncc([C@H]4CCC[C@H](C)N4)c3)c2=O)c(Cl)c1 (single isomer, unassigned) [Example 84]
15 | 8.03 | 6.26 | 8.38 | 6.43 | COc1cc(Cl)c(-n2cnc(N)c(C(=O)Nc3cncc(C(N)CC(F)F)c3)c2=O)c(Cl)c1 (single isomer, unassigned) [Example 85, (R)-4-amino-N-(5-(1-amino-3,3-difluoropropyl)pyridin-3-yl)-1-(2,6-dichloro-4-methoxyphenyl)-6-oxo-1,6-dihydropyrimidine-5-carboxamide or (S)-4-amino-N-(5-(1-amino-3,3-difluoropropyl)pyridin-3-yl)-1-(2,6-dichloro-4-methoxyphenyl)-6-oxo-1,6-dihydropyrimidine-5-carboxamide]
16 | 7.75 | 5.95 | 8.12 | 6.27 | Cc1cc(C(F)(F)F)cc(C)c1-n1cnc(N)c(C(=O)Nc2cncc(C3CCC(C)N3)c2)c1=O (single isomer, unassigned) [Example 87]
17 | 7.81 | 5.99 | 8.09 | 6.34 | CCC(N)c1cncc(NC(=O)c2c(N)ncn(-c3c(C)cc(C(F)(F)F)cc3C)c2=O)c1 (single isomer, unassigned) [Example 88, (R)-4-amino-N-(5-(1-aminopropyl)pyridin-3-yl)-1-(2,6-dimethyl-4-(trifluoromethyl)phenyl)-6-oxo-1,6-dihydropyrimidine-5-carboxamide or (S)-4-amino-N-(5-(1-aminopropyl)pyridin-3-yl)-1-(2,6-dimethyl-4-(trifluoromethyl)phenyl)-6-oxo-1,6-dihydropyrimidine-5-carboxamide]
